{
  "source": "patent US20230203023A1",
  "about": "“SALT AND CRYSTAL FORMS OF GLP-1R AGONISTS AND USES THEREOF” (QILU REGOR THERAPEUTICS INC., priority 2020, published 2023)",
  "format_in_all_cases": "physicochemical",
  "key": {"[1]": {"experiment": "Kinetic solubility test in water and bio-relevant media (SGF, FaSSIF, FeSSIF)", "settings": "for Purity (%), area percentage of API: for reference only (suspensions); for FC: form change: residual solids by XRPD; for pH: supernatant", "procedure,_shortened": "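Solids (~1 mg/mL loading as freeform) rolled at 25 rpm, 37° C in water, SGF (pH 1.8), FaSSIF (pH 6.5) or FeSSIF (pH 5.0). Sampled at 1, 4 and 24 h, centrifuged and filtered (0.45 μm PTFE). Supernatant concentration by HPLC, with pH measured; residual solids checked by XRPD.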"}, "[2]": {"experiment": "VH-XRPD, dehydration of the hydrate", "experimental": "VH-XRPD and single crystal structure determination were performed for 1:1 Compound I Tris Salt (Form A) and it was identified as a monohydrate, which would dehydrate at the ≤30%RH condition.\nVH-XRPD was performed for a 1:1 Compound II tris salt (Form B) sample for further identification. […] Combining the characterization results, it is believe that 1:1 Compound II tris salt (Form B) is a hydrate, which would dehydrate below ≤10% RH."}, "[3]": {"experiment": "Polymorph screening", "settings": "solution crystallization and solid transition methods", "experimental": "Polymorph screening experiments on 1:1 Compound I Tris Salt (Form A) were performed under vairous conditions using different solution crystallization or solid transition methods, including anti-solvent addition, reverse anti-solvent addition, slow evaporation, slow cooling, slurry at RT, slurry at 50° C., slurry cycling 5-50° C., vapor-solid diffusion, vapor-solution diffusion, polymer induced crystallization, and grinding."}},
  "note": "Counter-ions that a name gives are not always drawn. Like-named read-outs stand apart in the source and are kept apart here.",
  "data": [
    {"smiles": "O=C(O)c1ccc2nc(CN3CC=C(c4cccc(OCc5ccc(Cl)cc5F)c4)CC3)n(C[C@@H]3CCO3)c2c1", "note": "[Tris salt Form A, (S)-2-((4-(3-((4-chloro-2-fluorobenzyl)-oxy)phenyl)-3,6-dihydropyridin-1(2H)-yl)methyl)-1-(oxetan-2-ylmethyl)-1H-benzo[d]-imidazole-6-carboxylic acid]", "values": [
      {"measurement": "Purity (%), area percentage of API", "setting": "[1]; FaSSIF, 1 hour", "result": 92.63, "unit": "%"},
      {"measurement": "S: solubility", "setting": "[1]; FaSSIF, 4 hours, 37° C.", "result": 10, "unit": "µg/mL"},
      {"measurement": "S: solubility", "setting": "[1]; FaSSIF, 24 hours, 37° C.", "result": 10, "unit": "µg/mL"},
      {"measurement": "Purity (%), area percentage of API", "setting": "[1]; FaSSIF, 24 hours", "result": 58.70, "unit": "%"},
      {"measurement": "Purity (%), area percentage of API", "setting": "[1]; FeSSIF, 1 hour", "result": 94.61, "unit": "%"},
      {"measurement": "S: solubility", "setting": "[1]; FeSSIF, 4 hours, 37° C.", "result": 200, "unit": "µg/mL"},
      {"measurement": "Purity (%), area percentage of API", "setting": "[1]; FeSSIF, 4 hours", "result": 81.75, "unit": "%"},
      {"measurement": "S: solubility", "setting": "[1]; FeSSIF, 24 hours, 37° C.", "result": 30, "unit": "µg/mL"},
      {"measurement": "Purity (%), area percentage of API", "setting": "[1]; FeSSIF, 24 hours", "result": 43.32, "unit": "%"},
      {"measurement": "S: solubility", "setting": "[1]; H2O, 1 hour, 37° C.", "result": 100, "unit": "µg/mL"},
      {"measurement": "Purity (%), area percentage of API", "setting": "[1]; H2O, 1 hour", "result": 96.74, "unit": "%"},
      {"measurement": "S: solubility", "setting": "[1]; H2O, 4 hours, 37° C.", "result": 100, "unit": "µg/mL"},
      {"measurement": "Purity (%), area percentage of API", "setting": "[1]; H2O, 4 hours", "result": 89.77, "unit": "%"},
      {"measurement": "Purity (%), area percentage of API", "setting": "[1]; H2O, 24 hours", "result": 60.35, "unit": "%"},
      {"measurement": "Solubility in H2O, comparison in words", "setting": "[1]; H2O, compared with the other tested materials", "result": "better solubility"},
      {"measurement": "solubility at 1 h", "setting": "[1]; SGF, 37 °C, pH 1.8, simulated gastric fluid, thermodynamic from solid, SGF, 1 hour, 37° C., read-out: S: solubility", "result": 400, "unit": "µg/mL"},
      {"measurement": "solubility at 4 h", "setting": "[1]; SGF, 37 °C, pH 1.8, simulated gastric fluid, thermodynamic from solid, SGF, 4 hours, 37° C., read-out: S: solubility", "result": 400, "unit": "µg/mL"},
      {"measurement": "solubility at 24 h", "setting": "[1]; SGF, 37 °C, pH 1.8, simulated gastric fluid, thermodynamic from solid, SGF, 24 hours, 37° C., read-out: S: solubility", "result": 500, "unit": "µg/mL"},
      {"measurement": "Purity (%), area percentage of API", "setting": "[1]; SGF, 1 hour", "result": 93.12, "unit": "%"},
      {"measurement": "Purity (%), area percentage of API", "setting": "[1]; SGF, 4 hours", "result": 93.05, "unit": "%"},
      {"measurement": "Purity (%), area percentage of API", "setting": "[1]; SGF, 24 hours", "result": 89.49, "unit": "%"},
      {"measurement": "Form change in SGF, in words", "setting": "[1]; SGF, XRPD after solubility test", "result": "Form change was observed"},
      {"measurement": "FC: form change", "setting": "[1]; FaSSIF, 24 hours", "result": "No"},
      {"measurement": "FC: form change", "setting": "[1]; SGF, 1 hour", "result": "Yes"},
      {"measurement": "FC: form change", "setting": "[1]; SGF, 4 hours", "result": "Yes"},
      {"measurement": "FC: form change", "setting": "[1]; SGF, 24 hours", "result": "Yes"},
      {"measurement": "pH", "setting": "[1]; FaSSIF, 4 hours", "result": 6.6},
      {"measurement": "pH", "setting": "[1]; FaSSIF, 24 hours", "result": 6.6},
      {"measurement": "pH", "setting": "[1]; FeSSIF, 1 hour", "result": 5.1},
      {"measurement": "pH", "setting": "[1]; H2O, 1 hour", "result": 8.0},
      {"measurement": "pH", "setting": "[1]; H2O, 4 hours", "result": 8.2},
      {"measurement": "pH", "setting": "[1]; H2O, 24 hours", "result": 8.4},
      {"measurement": "pH", "setting": "[1]; SGF, 1 hour", "result": 1.9},
      {"measurement": "pH", "setting": "[1]; SGF, 4 hours", "result": 2.0},
      {"measurement": "pH", "setting": "[1]; SGF, 24 hours", "result": 1.9},
      {"measurement": "solubility at 24 h", "setting": "[1]; water, 37 °C, water, thermodynamic from solid, H2O, 24 hours, 37° C., read-out: S: solubility", "result": 50, "unit": "µg/mL"},
      {"measurement": "Relative humidity at which the hydrate would dehydrate", "setting": "[2]", "result": "≤ 30", "unit": "% RH"},
      {"measurement": "Form change in polymorph screening", "setting": "[3]", "result": "did not change under most of the test conditions"}
    ]}
  ]
}
